Laboratory results taken from US20200276168A1, “Sustained Release Pharmaceutical Compositions and Methods of Use” (Qrono, Inc., priority 2015, published 2020).

Tested on: head and neck squamous cell carcinoma cells
Test: head and neck squamous cell carcinoma xenograft model, tumor volume monitored for 4 weeks
Type: in vivo, mice
Conditions: payload equal to low dose sustained release formulation (210 nanograms), FIG. 2
Experimental: Athymic mice were injected subcutaneously with head and neck squamous cell carcinoma cells to form tumors. Mice were divided into groups and treated with a sustained release composition according to the present invention, QR206, at a high dose (2.1 micrograms) a low dose (210 nanograms), or with a low dose of unformulated drug (epothilone D, 210 nanograms). Tumor volume was monitored for 4 weeks.

Compound: C/C1=C/C[C@@H](/C(C)=C/c2csc(C)n2)OC(=O)C[C@H](O)C(C)(C)C(=O)[C@H](C)[C@@H](O)[C@@H](C)CCC1 [EpoD, Epothilone D]
- tumor growth rate of vehicle only control compared with the unformulated drug: higher tumor growth rate
